“And” between values parts separate entries of the source, which are not always exact repeats. Identical values can stand only once. Starred links: 1 amine or outer side, 2 acyl side, 3 side chain; linkers in the order of their positions; H or OH if unused. Positions of bridges follow the written chain, without caps; N, C: chain ends. Non-standard residues stand in square brackets, D forms with d. Residues, ends and D or L forms follow the SMILES beside them. X1 = CC(C)CCCCCCCCC[C@H](CC(=O)[*:1])O[*:2]
Tests used:
cold sores = experiment: Additional clinical data and case study, cold sores; assay type: in vivo, human; conditions: case study patient (untreated 2-4 weeks)
[1] = at 24 hours (Zeichner, '13); cited from earlier work
C. trachomatis = conditions: Bergsson, '98; cited from earlier work
[2] = aqueous
[3] = cited from earlier work
P. acnes = experiment: Protocol #4 in-vitro time-kill (ASTM E2315); assay type: cell-based, Propionibacterium acnes
Method: PURPOSE: This evaluation uses an in-vitro time-kill method to quantitatively assess the bactericidal activity of […] (10) formulations when challenged with P. acnes. An in vitro time-kill evaluation was conducted with various compositions based upon the methods described in the standardized ASTM […], Standard Guide for Assessment of Antimicrobial Activity Using a Time-Kill Procedure. […] A neutralization assay was performed on all the challenge organisms. Testing at pH 4.0.

[4] = tested on: Herpes Simplex Virus type 1 strain HF (ATCC #VR-260); experiment: Virucidal Suspension Test (ASTM E1052-20, in-vitro time-kill); assay type: cell-based; conditions: pH 9.0, 30 sec
Excerpt: The testing was based upon ASTM E1052-20, Standard Practice to Assess the Activity of Microbicides against Viruses in Suspension. The first antiviral testing protocols involve only HSV-1 virus with both alkaline and acid pH tests.
This study was done to determine virucidal efficacy of twelve test products when challenged with Herpes Simplex Virus type 1 strain HF (ATCC #VR-260) based upon a Virucidal Suspension Test (In-Vitro Time-Kill method). The test products comprise 8 varying compositions. Calculations of the estimated virus concentrations was performed using a 50% tissue culture infectious dose (TCID50) calculation—the Quantal test (Spearman-Karber Method). The logo reductions from the initial population of the viral strain were determined following exposure to the test product for 30 seconds, 2.5 minutes and 5 minutes. Testing was conducted in one replicate. Plating was performed in four replicates. […]
This study was done to determine virucidal efficacy of 12 test products when challenged with HSV-1 strain HF (ATCC #VR-260) and Human Coronavirus strain OC43 (ZeptoMetrix #0810024CF) based upon a Virucidal Suspension Test (In-Vitro Time-Kill method). […] The log 10 reductions from the initial population of the viral strain were determined following exposure to the test product for 30 seconds, 2.5 minutes and 5 minutes. […]

enveloped viruses = conditions: at 1 hour, virtually all enveloped viruses tested (Hierholzer, '16); cited from earlier work
[5] = tested on: Pseudomonas aeruginosa biofilm; experiment: Biofilm Protocol #3, LR against 48-hour biofilm, CDC Biofilm Reactor; assay type: cell-based; conditions: pH 9.0, 5 hours contact time
Method: LR testing was performed with varying compositions of GML and UDA against Staph. aureus, Pseudomonas aeruginosa, E. coli., Klebsiella pneumonia, Enterococcus faecalis. All biofilm is 48 hour laboratory grown. Biofilms of the tested organisms were grown in the laboratory to become mature 48-hour old biofilm. Testing involved the evaluation of numerous composition combinations for their ability to kill biofilm-associated pathogens grown using a CDC Biofilm Reactor. The ability to kill organisms was documented as a LR of the selected organisms that was measured as CFUs (colony forming units). LRs were documented for the different composition combinations. Testing protocols initially included both FAs and esters. […] LR testing was performed with numerous combinations to determine an optimal combination. […] Additional combinations comprised the plant phenol/flavonoid quercetin, amino acids, the synthetic surfactant SLS, biosurfactants RL and MEL, and UDA. The BS SL was not tested due to poor results in the prior P #2 configurations. […] The TSC served as a buffer. […] Alkaline pH was buffered with disodium hydrogen phosphate or glycine.

[6] = tested on: Candida albicans (ATCC MYA-2876; TPPS 1078), planktonic; experiment: P #5A planktonic antifungal testing; assay type: cell-based; conditions: up to 5-hour contact time, lecithin solubilizer
Method: Two sets of planktonic antifungal tests were performed, Candida and the dermatophyte Epidermophyton floccusum. Fungal strains-Candida albicans (ATCC MYA-2876; TPPS 1078) procured from the American Type Culture Collection, Manassas, VA.-Epidermophyton floccosum (ATCC 15693; TPPS 1243) procured from the American Type Culture Collection, Manassas, VA.

[7] = tested on: Staphylococcus aureus (ATCC #6538) biofilm; experiment: Biofilm Protocol #1, ASTM E2871 single tube method, CDC Biofilm Reactor; conditions: 5-minute contact time; for Log10 CFU/Coupon: treated coupons
[8] = tested on: Pseudomonas aeruginosa (ATCC #15442) biofilm; experiment: as above; conditions: 5-minute contact time; for Log10 CFU/Coupon: treated coupons
[9] = tested on: Staphylococcus aureus MRSA (ATCC #6538) biofilm; experiment: Biofilm Protocol #2, ASTM E2871 single tube method, 48 hour biofilm; assay type: cell-based
Method: (§1) In this round of testing, it was the intent to test numerous potential antibiofilm combinations.
(§2) EtOH (ethanol) was used as a solvent for all hydrophobic compounds: SLs, CaprAc, CURC and OCT. EtOH was used at up to 1.0% concentration.
(§3) Alkaline pH is achieved with NaOH titration.
(§4) Each was performed in one replicate for each species. A single sponsor-selected exposure duration was evaluated. The challenge organisms for this evaluation were Pseudomonas aeruginosa (ATCC #15442) and Staphylococcus aureus MRSA (ATCC #6538

[10] = tested on: Pseudomonas aeruginosa (ATCC #15442) biofilm; experiment: as above; assay type: cell-based
Method: as §1, §2, §3, §4

[11] = tested on: Candida albicans 48 hour biofilm; experiment: P #5B-D Candida biofilm testing; assay type: cell-based; conditions: pH 9.0-9.5, one hour contact time
Method: Organisms: Candida albicans ([…] 1078). Date Culture Initiated: […] Culture Medium: Sabouraud dextrose agar. […] These tests were performed utilizing only UDA, due to the poor GML results in P #5A. […] […] Effect of Aspartic Acid, Cysteine, Salicylic Acid […] Prior literature indicates poor antifungal effects in alkaline pH, thus it was the intent to document whether disclosed compositions would generate an improved antifungal effect in alkaline pH.

[12] = tested on: Mycobacterium fortuitum (ATCC #6841) biofilm; experiment: Protocol #6 mycobacterial biofilm in silicone tubing; assay type: cell-based; conditions: pH 9.0, 5 hours contact time
Method: Two challenge microorganisms are separately evaluated: Brevundimonas diminuta (ATCC #19146) and Mycobacterium fortuitum (ATCC #6841). Biofilms of each challenge microorganism were formed in laboratory-created tubing loops consisting of a length of silicone tubing connected to a bottle of challenge microorganism in growth broth. The fluid within the tubing loop was recirculated for 10 to 14 days (Mycobacterium fortuitum) at a flowrate of 30 mL/minute while held at 36° C. (Mycobacterium fortuitum). Following completion of biofilm generation, the tubing loops were drained, and the tube lumen gently rinsed with phosphate-buffered water to remove planktonic (i.e., non-biofilm) challenge microorganisms. The tubing was then disinfected according to the manufacturer's Instructions for Use. At the completion of treatment, a portion of the silicone tubing was removed for analysis of biofilm concentration and imaging of biofilm coverage.

Nc1nc2c(ncn2COCCO)c(=O)[nH]1 [Acyclovir, acyclovir]
time to resolution of cold sores (cold sores): 7 to 14 days

O=C(OOC(=O)c1ccccc1)c1ccccc1 [BPO, benzoyl peroxide]
BPO absorbed through the skin [1]: 5-9%

CCCCCCCC(=O)O [Caprylic acid]
reduction in the infectivity titer / inactivation (C. trachomatis): negligible effects

CCCCCCCCCCCC(=O)OCC(O)CO (centres unmarked) [GML, glycerol monolaurate]
maximum concentration of GML solubilized ([2]; EtOH 1% as solvent): 0.1%
GML concentration solubilized ([2]; deoiled lecithin as solubilizer): ≥ 20%
maximal water solubility [3]: < 100 µg/mL
Log Reductions 0.5 (30 seconds) (P. acnes; pH 4.0, 30 seconds exposure): 1.87
Log Reductions 5 min (P. acnes; pH 4.0, 5 min exposure): 4.81
reduction in the infectivity titer / inactivation (C. trachomatis): negligible effects
LR 30 sec [4]: > 5.5 and > 4.75 and > 5.25
log reduction (enveloped viruses): > 3
LR PA [5]: 9.11
LRs against planktonic C. albicans [6]: 0-1

CCCCCCCCN=c1ccn(CCCCCCCCCCn2ccc(=NCCCCCCCC)cc2)cc1 [I: OCT 0.1%, 1 mg/mL, octenidine]
Log10 Reduction ([7]; 1 mg/mL.): 3.28
Percent Reduction ([7]; 1 mg/mL.): 99.95%
Log10 CFU/Coupon ([7]; 1 mg/mL.): 4.93
Log10 Reduction [8]: 1.84
Percent Reduction [8]: 98.56%
Log10 CFU/Coupon [8]: 7.31

CCCCCCCCN=c1ccn(CCCCCCCCCCn2ccc(=NCCCCCCCC)cc2)cc1 [J: OCT 0.02%, 0.2 mg/mL, octenidine]
Log10 Reduction ([7]; 0.2 mg/ml): 1.87
Percent Reduction ([7]; 0.2 mg/ml): 98.68%
Log10 CFU/Coupon ([7]; 0.2 mg/ml): 6.34
Log10 Reduction [8]: 0.80
Percent Reduction [8]: 84.48%
Log10 CFU/Coupon [8]: 8.35

CCCCCCCCN=c1ccn(CCCCCCCCCCn2ccc(=NCCCCCCCC)cc2)cc1 [OCT, octenidine]
LOG REDUCTIONS Staph ([9]; Acid pH 4.0): 1.08
LOG REDUCTIONS Staph ([9]; Alkaline pH 8.5): 7.9
LOG REDUCTIONS Pseud ([10]; Acid pH 4.0): 4.9
LOG REDUCTIONS Pseud ([10]; Alkaline pH 8.5): 9.11

CCCCCCCCCCCCOS(=O)(=O)[O-].[Na+] [SLS, sodium lauryl sulfate]
LR PA [5]: 3.76

CC(C)CCCCCCCCC[C@@H]1CC(=O)N[C@@H](CCC(=O)O)C(=O)N[C@@H](CC(C)C)C(=O)N[C@H](CC(C)C)C(=O)N[C@@H](C(C)C)C(=O)N[C@@H](CC(=O)O)C(=O)N[C@H](CC(C)C)C(=O)N[C@@H](CC(C)C)C(=O)O1 [Surfactin] (EL[dL]VD[dL]L; linker N-C via X1)
Log10 Reduction [7]: 0.00
Percent Reduction [7]: 0.00%
Log10 CFU/Coupon [7]: 8.28
Log10 Reduction [8]: 0.00
Percent Reduction [8]: 0.00%
Log10 CFU/Coupon [8]: 9.18

C=CCCCCCCCCC(=O)O [UDA, undecylenic acid]
LR [11]: > 4
LR [12]: > 5.31

CCCCCCCCCC(=O)OCC(O)CO (centres unmarked) [monocaprin]
reduction in the infectivity titer / inactivation (C. trachomatis): > 5 log 10

CCCCCCCC(=O)OCC(O)CO (centres unmarked) [monocaprylin]
reduction in the infectivity titer / inactivation (C. trachomatis): negligible effects

CCCCCCCC/C=C\CCCCCCCC(=O)OCC(O)CO (centres unmarked) [monoolein]
reduction in the infectivity titer / inactivation (C. trachomatis): negligible effects

CCCCCC/C=C\CCCCCCCC(=O)OCC(O)CO (centres unmarked) [monopalmitolein]
reduction in the infectivity titer / inactivation (C. trachomatis): negligible effects

CCCCCCCCCCCCCC(=O)O [myristic acid]
reduction in the infectivity titer / inactivation (C. trachomatis): negligible effects

CCCCCCCC/C=C\CCCCCCCC(=O)O [oleic acid]
reduction in the infectivity titer / inactivation (C. trachomatis): negligible effects

CCCCCC/C=C\CCCCCCCC(=O)O [palmitoleic acid]
reduction in the infectivity titer / inactivation (C. trachomatis): negligible effects

benzalkonium chloride [BAC]
LOG REDUCTIONS Staph ([9]; Acid pH 4.0): 6.12 and > 7
LOG REDUCTIONS Pseud ([10]; Acid pH 4.0): > 6 and > 7
